Reference: US9409952B2, “Peptide-compound cyclization method” (Chugai Seiyaku Kabushiki Kaisha, priority 2011, dated 2016)
Read-outs that look alike come from different tables or passages of the source. Starred links: 1 amine or outer side, 2 acyl side, 3 side chain; linkers in the order of their positions; H or OH if unused. Positions of bridges follow the written chain, without caps; N, C: chain ends. Non-standard residues stand in square brackets, D forms with d. Residues, ends and D or L forms follow the SMILES beside them. *: point of attachment. NMeF = CN[C@@H](Cc1ccccc1)C(=O)O; NMeGABA = CN(CCCC(=O)[*:2])[*:1]; NMeI = CC[C@H](C)[C@H](NC)C(=O)O; NMeL = CN[C@@H](CC(C)C)C(=O)O; NMeV = CN[C@H](C(=O)O)C(C)C; NMeA = CN[C@@H](C)C(=O)O; Piperidide = C1CCN(*)CC1; dNMeA = CN[C@H](C)C(=O)O; Sar = CNCC(=O)O; tBu = CC(C)(C)*

Key:
[1] = PAMPA (parallel artificial membrane permeability assay); format: in vitro ADME; settings: for Papp at 18 hours, 50 µM: PAMPA
Method in brief: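 Artificial membrane was 10% (w/v) egg lecithin plus 0.5% (w/v) cholesterol in dodecane on a PVDF filter. A 10 mM DMSO stock was added at 0.5% (v/v) to donor buffer (50 mM MOPSO, pH 6.5, 5.0% glycocholic acid). After 18 h at 37 °C, LC/MS or LC/UV gave donor and acceptor levels for Pe.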

[2] = Metabolic stability in human hepatic microsome; format: in vitro ADME; settings: NADPH(+), read-out: CL NADPH(+)
[3] = membrane permeation rate (Pe), 50 mM MOPSO buffer pH 6.5 with 5.0% glycocholic acid, 37° C., 18 hours, read-out: iPAMPA Pe
[4] = microsomes, pH 7.4, human hepatic microsome

Row | SMILES | Papp at 18 hours, 50 µM [1, 3] [×10⁻⁶ cm/s] | other results
1 | CC[C@H](C)[C@H]1C(=O)N[C@@H](C)C(=O)N[C@H](C(=O)N2CCCCC2)CC(=O)N(C)[C@@H](C)C(=O)N[C@@H]([C@@H](C)O)C(=O)N(C)[C@@H](Cc2ccccc2)C(=O)N[C@@H](CC(C)C)C(=O)N2CCC[C@H]2C(=O)N(C)[C@@H](C(C)C)C(=O)N[C@@H](Cc2ccccc2)C(=O)N(C)CC(=O)N(C)[C@@H](CC(C)C)C(=O)N1C [DP-58] ([NMeA]T[NMeF]LP[NMeV]F[Sar][NMeL][NMeI]AD-Piperidide; lactam N-12) | 20 | microsomal CLint at 1 uM ([2]; human, human hepatic microsomes, pH 7.4, human hepatic microsome): 27 µL/min/mg
2 | CC(C)C[C@@H]1NC(=O)[C@H](CC(C)C)N(C)C(=O)[C@@H](C(C)C)NC(=O)C[C@@H](C(=O)N2CCCCC2)NC(=O)[C@H](CC(C)C)N(C)C(=O)[C@H](Cc2ccccc2)N(C)C(=O)[C@H](C)N(C)C(=O)[C@H]([C@@H](C)O)NC(=O)[C@H](Cc2ccccc2)N(C)C1=O [DP-264] ([dV][NMeL]L[NMeF]T[NMeA][NMeF][NMeL]D-Piperidide; lactam N-9) | 37 | microsomal CLint at 1 uM [2, 4]: 94 µL/min/mg
3 | CC[C@H](C)[C@@H]1NC(=O)[C@H](C)N(C)C(=O)[C@H](CC(C)C)NC(=O)[C@H]([C@@H](C)O)NC(=O)CNC(=O)[C@@H]2CCCN2C(=O)[C@H](COC(C)(C)C)NC(=O)[C@H](CC(C)C)N(C)C(=O)[C@H](Cc2ccccc2)NC(=O)CCCN(C)C(=O)C[C@@H](C(=O)N2CCCCC2)NC(=O)[C@H](Cc2ccccc2)N(C)C1=O [DP-107] ([NMeGABA]F[NMeL]S(tBu)PGTL[NMeA]I[NMeF]D-Piperidide; lactam N-12) | 23 | microsomal CLint at 1 uM [2, 4]: 14 µL/min/mg
4 | CC[C@H](C)[C@@H]1NC(=O)[C@H](CC(C)C)N(C)C(=O)[C@H](C)N(C)C(=O)[C@H](Cc2ccccc2)N(C)C(=O)[C@@H](C)N(C)C(=O)C[C@@H](C(=O)N2CCCCC2)NC(=O)[C@H](CC(C)C)N(C)C(=O)[C@H]([C@@H](C)O)NC(=O)[C@H](CO)NC(=O)[C@H](CC(C)C)NC(=O)[C@H](C)N(C)C(=O)[C@H](CC(C)C)N(C)C(=O)[C@H](Cc2ccccc2)NC(=O)[C@H](CC(C)C)N(C)C1=O [DP-959] ([dNMeA][NMeF][NMeA][NMeL]I[NMeL]F[NMeL][NMeA]LST[NMeL]D-Piperidide; lactam N-14) | 2.9 | –
5 | CC[C@H](C)[C@H]1C(=O)N[C@@H](C(C)C)C(=O)N(C)[C@@H](Cc2ccccc2)C(=O)N[C@@H](CC(C)C)C(=O)N(C)[C@@H](Cc2ccccc2)C(=O)N[C@H](C(=O)N(C)[C@@H](Cc2ccccc2)C(=O)N[C@@H](C)C(=O)N[C@H](C(=O)N[C@@H](Cc2ccccc2)C(=O)N2CCCCC2)[C@@H](C)O)CC(=O)N[C@@H](C)C(=O)N[C@@H](CC(C)C)C(=O)N1C [DP-572] (AL[NMeI]V[NMeF]L[NMeF]D[NMeF]ATF-Piperidide; lactam N-8) | – | iPAMPA Pe ([1]; membrane permeation rate (Pe), 50 mM MOPSO buffer pH 6.5 with 5.0% glycocholic acid, 37° C., 18 hours): 1.0E−07
6 | CC[C@H](C)[C@@H]1NC(=O)[C@H](CC(C)C)N(C)C(=O)CN(C)C(=O)[C@H]([C@@H](C)O)NC(=O)[C@H](C)N(C)C(=O)C[C@@H](C(=O)N(C)[C@@H](CC(C)C)C(=O)N[C@@H](C)C(=O)N2CCCCC2)NC(=O)[C@H](CC(C)C)N(C)C(=O)[C@H](Cc2ccccc2)N(C)C(=O)[C@H](CC(C)C)N(C)C1=O [DP-663] ([NMeA]T[Sar][NMeL]I[NMeL][NMeF][NMeL]D[NMeL]A-Piperidide; lactam N-9) | 43 | –
7 | CC[C@H](C)[C@@H]1NC(=O)[C@H](CC(C)C)N(C)C(=O)[C@H](C)N(C)C(=O)[C@H]([C@@H](C)O)NC(=O)[C@H](CC(C)C)N(C)C(=O)[C@H](Cc2ccccc2)N(C)C(=O)[C@@H](C(C)C)NC(=O)C[C@@H](C(=O)N(C)[C@@H](Cc2ccccc2)C(=O)N[C@@H](C)C(=O)N2CCCCC2)NC(=O)[C@H](C(C)C)N(C)C1=O [DP-308] ([dV][NMeF][NMeL]T[NMeA][NMeL]I[NMeV]D[NMeF]A-Piperidide; lactam N-9) | – | Papp at 18 hours, 50 µM ([1]; pH 6.5): 27 ×10⁻⁶ cm/s
